Test results as given in patent US4087416A, “New heptapeptides and methods for their production” (Parke, Davis & Company, priority 1976, dated 1978).

System: LRF (luteinizing hormone releasing factor) induced luteinizing hormone (LH) release
Experiment: In vitro LRF antagonist test in rat anterior pituitary cell cultures
Format: cell-based
Text: Heptapeptides of this invention were screened for LRF antagonist activity in vitro using rat anterior pituitary cell cultures as described by Vale et. al. [Endocrinology, 91, 562 (1972)]. The inhibition of LRF (luteinizing hormone releasing factor) induced luteinizing hormone (LH) release into the culture medium is the endpoint in this in vitro bioassay.

[1] = Molar Conc. 1×10^-7, second experiment (LRF 3.5×10^-10)
[2] = Molar Conc. 2×10^-7, second experiment (LRF 3.5×10^-10)
[3] = Molar Conc. 3.5×10^-7, second experiment (LRF 3.5×10^-10)
[4] = Molar Conc. 1×10^-6, first experiment (LRF 5×10^-10)
[5] = Molar Conc. 1×10^-7, first experiment (LRF 5×10^-10)
[6] = Molar Conc. 1×10^-8, first experiment (LRF 5×10^-10)
[7] = Molar Conc. 3.5×10^-7, first experiment (LRF 5×10^-10)
[8] = Molar Conc. 3.5×10^-8, first experiment (LRF 5×10^-10)

With “LRF Control: luteinizing hormone releasing factor, also referred to as luteinizing hormone releasing hormone; stimulates the secretion of luteinizing hormone (QHWSYGLRPG; Gonadoliberin-1; UniProt P01148 24-33, looked up) [reference compound]” the “LH Value” (LRF alone, Molar Conc. 3.5×10^-10, second experiment) was 40.01 ng/mL and the “LH Value” (LRF alone, Molar Conc. 5×10^-10, first experiment) was 38.48 ng/mL.
For “N^α -t-Butoxycarbonyl-L-prolyl-N^im -benzyl-L-histidyl-N^im -benzyl-L-histidyl-O-benzyl-L-seryl-O-benzyl-L-tyrosyl-L-tryptophyl-D-alanine methyl ester”, the “% LH Release Inhibition” value [1] was 65%, the “LH Value” [1] was 23.32 ng/mL and the “% LH Release Inhibition” value [2] was 58%. For the same substance, the “LH Value” [2] was 24.98 ng/mL, the “% LH Release Inhibition” value [3] was 74% and the “LH Value” [3] was 20.80 ng/mL.
“N^α -t-Butoxycarbonyl-L-prolyl-N^im -benzyl-L-histidyl-N^im -benzyl L-histidyl-O-benzyl-L-seryl-O-benzyl-L-tyrosyl-L-tryptophyl-D-alanine N-ethylamide” was tested, and the “% LH Release Inhibition” value [4] was 101%, the “LH Value” [4] was 11.36 ng/mL and the “% LH Release Inhibition” value [5] was 77%. The “LH Value” [5] was 17.83 ng/mL, the “% LH Release Inhibition” value [6] was 24% and the “LH Value” [6] was 31.92 ng/mL. For the same substance, the “% LH Release Inhibition” value [7] was 99%, the “LH Value” [7] was 11.90 ng/mL and the “% LH Release Inhibition” value [8] was 55%. For the same substance, the “LH Value” [8] was 23.65 ng/mL.
